This is an account of results in US4952580A, “Pesticidal polyhaloalkene derivatives” (priority 1988, dated 1990).

The subject of data set [1] is root-knot nematode (Meloidogyne incognita). The experiment in a line: Initial Root-Knot Nematicidal Activity. Type of data set: in vivo. The following applies: 336 h, read-out: Percent Control; for pest or weed control at 0.313 ppm: Table 2, Application Rate 0.313 ppm; for pest or weed control at 0.625 ppm: Table 2, Application Rate 0.625 ppm; for pest or weed control at 1.25 ppm: Table 2, Application Rate 1.25 ppm; for pest or weed control at 0.312 ppm: Table 2, Application Rate 0.312 ppm. As to the method:
(§1) Compounds of this invention were tested as follows for nematicidal and anthelmintic activity as dust formulations (initial and residual activity) and as acetone/water formulations (systemic activity). The formulations are described above.
The activity against root-knot nematode (Meloidogyne incognita) was determined by incorporating the compound of the invention in nematode infested soil at rates in the range of 10 ppm to 0.078 ppm of compound. Several tomato or cucumber seedlings were planted in the nematode infested soil. Two weeks after planting the test pots were evaluated to ascertain the degree of galling (swelling) on the roots of the plants, indicating the control provided by the test chemical.
The results expressed as precent control (determined by knot index) are set forth as averages in Table 2 (appended). Knot index is a numerical designation assigned at evaluation, having the following meanings:
Percent control is related to knot index as follows:
When the Knot Index is between 0 and 1 it is further subdivided as follows to indicate how close the percent control is to 75% or 100%: […]

The next data set has as its system Caenorhabditis elegans. Briefly: C. Elegans Nematode Screening Test and Evaluation (in-vitro). The following applies: for inhibition at 5 ppm / mortality at 5 ppm / inhibition at 1.25 ppm / mortality at 1.25 ppm / inhibition at 2.5 ppm / mortality at 2.5 ppm: Caenorhabditis elegans; for inhibition at 5 ppm / inhibition at 1.25 ppm / inhibition at 2.5 ppm: read-out: Percent Inhibition of Reproduction; for mortality at 5 ppm / mortality at 1.25 ppm / mortality at 2.5 ppm: read-out: Percent Mortality. As to the method:
This in-vitro test using the free-living nematode Caenorhabditis elegans, is a modification of the assay developed by Simpkin and Coles, J. Chem. Tech. […] One milliliter of a test medium consisting of 5 mg ampicillin, 10,000 units of mycostatin and 10 ml of a dense suspension of Escherichia coli per 100 ml of a buffer solution, was pipetted into each well of a 24-well microtiter plate. The candidate nematicide, suspended at the appropriate concentration in dimethylsulfoxide, was added to the wells in […] volumes. Each rate of application was replicated two to three times. After thorough mixing of the contents of each well, 50 to 100 μl of a nematode suspension in a buffer was added so that each well received 10-15 nematodes. After the nematodes were added, the microtiter plates were incubated at 20° C. for 5-6 days.
The effect of the candidate nematicide on the survival and the reproduction of C. elegans was then evaluated by comparison of the level of population developed in the treated wells with that in untreated wells. Specific effects on population development, such as reduced egg hatch or molting disruption, were noted if they were evident.

For a further data set, the system named is root-knot nematode. Briefly: Soil Mobility against root-knot nematode. It is filed as in vivo, Meloidogyne incognita. Conditions: 336 h, Table 7a, 5% dust, 5 ppm, read-out: Percent Control. As to the method:
as §1
The ability of nematicidal compounds of the invention to move through nematode-infested soil […] infested soil, and subsequently eluting the soil with 15 cm of water (equivalent to 15 cm of rainfall) into a series of two or more pots of untreated, but nematode-infested, soil. Specifically, the pots were 8 cm diameter plastic pots containing a 10 cm^3 layer of sand over a coarse grade filter paper disc. Sufficient soil was placed over the sand to fill the pots, and a second filter paper disc was placed over the soil. Each test compound-treated pot was nested over a series of two or more pots containing untreated, but nematode-infested soil, also containing sand filter paper discs as described for the treated soil pots. Fifteen cm of water was slowly dripped into the top pots and the pots were allowed to drain for 16-18 hours to remove excess water. The top filter of each pot was then removed and the pots were planted with a cucumber or tomato seedling. […] "Knot Index" and "Percent Control" are as defined in the initial root-knot nematode tests above.

The mark [2] stands for this setting: Table 2, Application Rate 2.5 ppm.
The mark [3] stands for this setting: Table 2, Application Rate 5.0 ppm.
The mark [4] stands for this setting: Table 2, Application Rate 10.0 ppm.

Molecules are shown by their SMILES. Where two headings read alike, the source gives them in different places.

Regarding `O=C1c2ccccc2S(=O)(=O)N1CCC(F)=C(F)F` [Compound 24, N-(3,4,4-trifluoro-3-butenyl)saccharine], the pest or weed control at 2.5 ppm in data set [1] (setting [2]) amounted to 19%. Moreover, in data set [1] (setting [3]), the pest or weed control at 5 ppm turned out to be 63%. Moreover, in data set [1] (setting [4]), the pest or weed control at 10 ppm is 78%.
The corresponding values for `O=C(OCCC(F)=C(F)F)C(F)(F)C(F)(F)F` [Compound 19, (3,4,4-trifluoro-3-butenyl) pentafluoropropionate, mono diethyl etherate] are 58%, 75% and 69%.
Regarding `O=C(OCCC(F)=C(F)F)c1ccc[nH]1` [Compound 22, (3,4,4-trifluoro-3-butenyl) 2-pyrrolecarboxylate], in data set [1], the pest or weed control at 0.313 ppm was 0%, the pest or weed control at 0.625 ppm came out at 0% and the pest or weed control at 1.25 ppm stood at 44%. Besides, in data set [1] (setting [2]), the pest or weed control at 2.5 ppm turned out to be 96%.
Turning to `O=C(CSC1=NCCS1)OCCC(F)=C(F)F` [Compound 23, (3,4,4-trifluoro-3-butenyl) [2-(4,5-dihydrothiazolyl)thio]acetate], the pest or weed control at 2.5 ppm in data set [1] (setting [2]) stood at 76%. Also, the pest or weed control at 5 ppm in data set [1] (setting [3]) is 84%. Also, the pest or weed control at 10 ppm in data set [1] (setting [4]) is 96%.
For orientation: inhibition means the percentage by which the read-out fell short of the control. As a reminder, the mortality is the share of the test organisms that died. Consider `O=[N+]([O-])c1ccc(-c2noc(SCCC(F)=C(F)F)n2)cc1` [Compound 40, 3-(4-nitrophenyl)-5-(3,4,4-trifluoro-3-butenylthio)-1,2,4-oxadiazole], for which, in data set [1], the pest or weed control at 0.312 ppm amounted to 0%, the pest or weed control at 0.625 ppm is 56% and the pest or weed control at 1.25 ppm stood at 84%. The pest or weed control at 2.5 ppm in data set [1] (setting [2]) came out at 99%. In the data set on Caenorhabditis elegans (Table 10 evaluation, 5 ppm), the inhibition at 5 ppm is 100% and the mortality at 5 ppm came to 100%. Besides, in the data set with Caenorhabditis elegans (Table 10 evaluation, 1.25 ppm), the inhibition at 1.25 ppm came to 100% and the mortality at 1.25 ppm amounted to 100%. In the data set with Caenorhabditis elegans (Table 10 evaluation, 2.5 ppm), the inhibition at 2.5 ppm is 100% and the mortality at 2.5 ppm came to 100%.
Regarding `FC(F)=C(F)CCSCc1cc2ccccc2s1` [Compound 11, 2-(3,4,4-trifluoro-3-butenylthiomethyl)-thianaphthene], in data set [1], the pest or weed control at 0.625 ppm was determined as 0% and the pest or weed control at 1.25 ppm came to 67%. Also, in data set [1] (setting [2]), the pest or weed control at 2.5 ppm is 78%. The pest or weed control at 5 ppm in data set [1] (setting [3]) stood at 83%.
As to `FC(F)=C(F)CCSc1nc(-c2ccc(Cl)cc2)no1` [Compound 39, 3-(4-chlorophenyl)-5-(3,4,4-trifluoro-3-butenylthio)-1,2,4-oxadiazole], in data set [1], the pest or weed control at 0.312 ppm came out at 19%, the pest or weed control at 0.625 ppm was determined as 84% and the pest or weed control at 1.25 ppm amounted to 98%. For the same molecule, the pest or weed control at 2.5 ppm in data set [1] (setting [2]) stood at 100%. Also, in the data set on Caenorhabditis elegans (Table 9 screen, 5 ppm), the inhibition at 5 ppm came to 100% and the mortality at 5 ppm was found to be 100%. Further, in the data set with Caenorhabditis elegans (Table 10 evaluation, 5 ppm), the mortality at 5 ppm came to 100% and the “Percent Mortality” value is given as 100%. Besides, in the data set with Caenorhabditis elegans (Table 10 evaluation, 1.25 ppm), the inhibition at 1.25 ppm amounted to 100%, the mortality at 1.25 ppm turned out to be 67% and the “Percent Mortality” value worked out at 58%. Besides, in the data set on Caenorhabditis elegans (Table 10 evaluation, 2.5 ppm), the inhibition at 2.5 ppm came out at 100%, the mortality at 2.5 ppm was determined as 100% and the “Percent Mortality” value was 100%.
For `O=C(OCCC(F)=C(F)F)c1ccc(Cl)cc1` [Compound 4, (3,4,4-trifluoro-3-butenyl) 4-chlorobenzoate], in data set [1], the pest or weed control at 0.313 ppm worked out at 38%, the pest or weed control at 0.625 ppm was 44% and the pest or weed control at 1.25 ppm was determined as 56%. Further, in data set [1] (setting [2]), the pest or weed control at 2.5 ppm was 99%.
On to `O=[N+]([O-])c1ccc(CSc2nsc(SCCC(F)=C(F)F)n2)cc1` [Compound 26, 3-(4-nitrophenylmethylthio)-5-(3,4,4-trifluoro-3-butenylthio)-1,2,4-thiadiazole], for which, in data set [1], the pest or weed control at 0.312 ppm is 0%, the pest or weed control at 0.625 ppm came out at 0% and the pest or weed control at 1.25 ppm was found to be 63%. In data set [1] (setting [2]), the pest or weed control at 2.5 ppm is 86%. For the same molecule, in the data set with Caenorhabditis elegans (Table 9 screen, 5 ppm), the inhibition at 5 ppm was found to be 100% and the mortality at 5 ppm turned out to be 100%. Moreover, the mortality at 5 ppm with Caenorhabditis elegans (Table 10 evaluation, 5 ppm) worked out at 100%. In addition, in the data set with Caenorhabditis elegans (Table 10 evaluation, 1.25 ppm), the inhibition at 1.25 ppm worked out at 100% and the mortality at 1.25 ppm amounted to 100%. In the data set on Caenorhabditis elegans (Table 10 evaluation, 2.5 ppm), the inhibition at 2.5 ppm came out at 100% and the mortality at 2.5 ppm turned out to be 100%.
With `O=C(OCCC(F)=C(F)F)C(F)(F)C(F)(F)C(F)(F)F` [Compound 3, (3,4,4-trifluoro-3-butenyl) heptafluorobutyrate], in data set [1], the pest or weed control at 2.5 ppm was 71%, the pest or weed control at 5 ppm was found to be 83% and the pest or weed control at 10 ppm turned out to be 95%.
For the molecule `O=C1CCC(=O)N1CCC(F)=C(F)F` [Compound 5, N-(3,4,4-trifluoro-3-butenyl)succinimide], in data set [1], the pest or weed control at 0.313 ppm was 0%, the pest or weed control at 0.625 ppm came out at 6% and the pest or weed control at 1.25 ppm was determined as 70%. Besides, the pest or weed control at 2.5 ppm in data set [1] (setting [2]) was 81%.
Turning to `FC(F)=C(F)CCSc1nnc(-c2ccc(Cl)cc2)s1` [Compound 37, 2-(4-chlorophenyl)-5-(3,4,4-trifluoro-3-butenylthio)-1,3,4-thiadiazole], the pest or weed control at 0.078 ppm in data set [1] (Table 2, Application Rate 0.078 ppm) turned out to be 0%. Also, the pest or weed control at 0.156 ppm in data set [1] (Table 2, Application Rate 0.156 ppm) came to 0%. In data set [1], the pest or weed control at 0.312 ppm was 0% and the pest or weed control at 0.625 ppm came out at 0%. In addition, in the data set on Caenorhabditis elegans (Table 9 screen, 5 ppm), the inhibition at 5 ppm is 100% and the mortality at 5 ppm is 100%. The mortality at 5 ppm in the data set on Caenorhabditis elegans (Table 10 evaluation, 5 ppm) came out at 100%. In the data set on Caenorhabditis elegans (Table 10 evaluation, 1.25 ppm), the inhibition at 1.25 ppm came out at 100% and the mortality at 1.25 ppm came out at 100%. In addition, in the data set on Caenorhabditis elegans (Table 10 evaluation, 2.5 ppm), the inhibition at 2.5 ppm worked out at 100% and the mortality at 2.5 ppm is 100%.
As to `OCCCC(F)=C(F)F` [Compound 7, 4,5,5-trifluoro-4-penten-1-ol], the pest or weed control at 2.5 ppm in data set [1] (setting [2]) is 25%. Moreover, the pest or weed control at 5 ppm in data set [1] (setting [3]) was determined as 44%. Also, in data set [1] (setting [4]), the pest or weed control at 10 ppm stood at 79%.
For the molecule `O=C(OCCC(F)=C(F)F)c1cccs1` [Compound 20], in data set [1], the pest or weed control at 0.313 ppm is 0%, the pest or weed control at 0.625 ppm amounted to 6% and the pest or weed control at 1.25 ppm stood at 63%. For the same molecule, the pest or weed control at 2.5 ppm in data set [1] (setting [2]) worked out at 98%.
The corresponding values for `C#CCSc1nnc(SCCC(F)=C(F)F)s1` [Compound 14, 2-propargylthio-5-(3,4,4-trifluoro-3-butenylthio)-1,3,4-thiadiazole] are 0%, 0%, 25% and 83%.
In the case of `FC(F)=C(F)CCSc1nc(Cc2ccc(F)cc2)no1` [Compound 38, 3-(4-fluorophenylmethyl)-5-(3,4,4-trifluoro-3-butenylthio)-1,2,4-oxadiazole], in data set [1], the pest or weed control at 0.312 ppm was 63%, the pest or weed control at 0.625 ppm was determined as 76% and the pest or weed control at 1.25 ppm worked out at 96%. Besides, the pest or weed control at 2.5 ppm in data set [1] (setting [2]) was found to be 98%. In addition, the pest or weed control at 5 ppm with root-knot nematode (BOTTOM container) stood at 0%. In the data set on root-knot nematode (MIDDLE container), the pest or weed control at 5 ppm is 0%. Also, in the data set on root-knot nematode (TOP container), the pest or weed control at 5 ppm amounted to 0%.
